Like-named read-outs stand apart in the source and are kept apart here.
How the values were obtained:
[1] = cited from earlier work
[2] = Safety assessment (adverse events, laboratory tests) in the four-way crossover study; format: in vivo, human (healthy subjects)
Description: Seventy-four healthy, non-smoking, male & female subjects, 18-65 years old were enrolled in this study. A total of 68 subjects completed all the requirements of the protocol. There were no enrollment violations. However, nine of the 74 subjects began the study during the third period of the initial group of subjects. All 74 subjects who received at least one dose of study medication were included in the safety analysis.
This study was a single center, randomized, open-label, 4-way crossover study in healthy subjects. Dosing was administered in the fasted state. Seventy-four (74) subjects were randomized into the study. All seventy-four subjects received one or more doses of study medication and are therefore included in the safety assessment. On Treatment Day 1 of the first treatment period, each subject was randomized to receive one of four possible study treatment sequences. The treatment groups consisted of the four treatments administered sequentially as DCAB, ADBC, BACD or CBDA. These treatments are shown below.
A signed informed consent was obtained from each subject. For screening purposes, the following procedures were required of each subject and were performed by the clinical site within 30 days prior to the study: a complete physical examination including a medical history, vital signs, clinical laboratory safety tests on blood and urine, medications taken prior to and during the study, and a serum pregnancy test for female subjects.
During the treatments, temperature, blood pressure, heart rate and respiratory rate were monitored as a safety measure. A physical examination and clinical laboratory tests were repeated at the completion of the study. Subjects were observed and questioned throughout the study for the occurrence of any adverse events.
A total of 28 adverse events (AEs) were experienced; 27 were treatment emergent. Twenty-one (21) of these were assessed as related to study treatment. All related AEs are known to occur with trimethobenzamide and were primarily mild or moderate in intensity. One (1) severe AE occurred in one subject which was judged as unrelated to study treatment-severe pharyngitis. […] A summary of treatment emergent adverse events (AEs) is presented in Table 6 using the preferred medical term.

[3] = 74 subjects, all four treatment periods

N-[2-(dimethylamino)-ethoxy]-3,4,5-trimethoxybenzamide hydrochloride [trimethobenzamide hydrochloride]
DURATION ([1]; IM): 2 to 3 h
ONSET ([1]; IM): 15 to 35 min
DURATION ([1]; PO): 3 to 4 h
ONSET ([1]; PO): 10 to 40 min
DURATION ([1]; Rect): 3 to 4 h
ONSET ([1]; Rect): 10 to 40 min
subjects with decreased red blood cell count at the end of treatment ([2]; 5 percent prior to treatment): 11%
subjects with low hematocrit at the end of treatment ([2]; 8 percent prior to treatment): 34%
AEs assessed as related to study treatment [2, 3]: 21
serious AEs [2, 3]: no serious AEs
total adverse events (AEs) experienced [2, 3]: 28
treatment emergent AEs [2, 3]: 27
dizziness, number ([2]; all four treatment periods): 3
neurologic complaints, number ([2]; all four treatment periods): 15
paresthesias, number ([2]; all four treatment periods): 3
hematocrit mean change ([2]; end of treatment vs prior): 2.3%
hemoglobin mean change ([2]; end of treatment vs prior): 0.6 g/dL
red blood cell count mean change ([2]; end of treatment vs prior): 2e+11 L⁻¹
overall safety and tolerability ([2]; in vivo): safe and well tolerated
subjects with normal hemoglobin prior to treatment who had low hemoglobin at the end of treatment ([2]; in vivo): 13%
headaches, number ([2]; seen in a total of 7 subjects): 8
ABDOMINAL PAIN, subjects % ([2]; sequence A D B C (N = 20)): 5.0%
ABDOMINAL PAIN, subjects n ([2]; sequence A D B C (N = 20)): 1
CONJUNCTIVITIS, subjects % ([2]; sequence A D B C (N = 20)): 5.0%
CONJUNCTIVITIS, subjects n ([2]; sequence A D B C (N = 20)): 1
DIARRHEA, subjects % ([2]; sequence A D B C (N = 20)): 0.0%
DIARRHEA, subjects n ([2]; sequence A D B C (N = 20)): 0
DIZZINESS, subjects % ([2]; sequence A D B C (N = 20)): 15.0%
DIZZINESS, subjects n ([2]; sequence A D B C (N = 20)): 3
EDEMA, PALMAR, subjects % ([2]; sequence A D B C (N = 20)): 5.0%
EDEMA, PALMAR, subjects n ([2]; sequence A D B C (N = 20)): 1
ERYTHEMA, EXTERNAL NOSE, subjects % ([2]; sequence A D B C (N = 20)): 0.0%
ERYTHEMA, EXTERNAL NOSE, subjects n ([2]; sequence A D B C (N = 20)): 0
ERYTHEMA, PALMAR, subjects % ([2]; sequence A D B C (N = 20)): 5.0%
ERYTHEMA, PALMAR, subjects n ([2]; sequence A D B C (N = 20)): 1
HEADACHE, subjects % ([2]; sequence A D B C (N = 20)): 5.0%
HEADACHE, subjects n ([2]; sequence A D B C (N = 20)): 1
HYPOTONIA, subjects % ([2]; sequence A D B C (N = 20)): 0.0%
HYPOTONIA, subjects n ([2]; sequence A D B C (N = 20)): 0
INJECTION SITE REACTION, subjects % ([2]; sequence A D B C (N = 20)): 0.0%
INJECTION SITE REACTION, subjects n ([2]; sequence A D B C (N = 20)): 0
LARYNGISMUS, subjects % ([2]; sequence A D B C (N = 20)): 0.0%
LARYNGISMUS, subjects n ([2]; sequence A D B C (N = 20)): 0
LEG CRAMPS, subjects % ([2]; sequence A D B C (N = 20)): 0.0%
LEG CRAMPS, subjects n ([2]; sequence A D B C (N = 20)): 0
NAUSEA AND VOMITING, subjects % ([2]; sequence A D B C (N = 20)): 5.0%
NAUSEA AND VOMITING, subjects n ([2]; sequence A D B C (N = 20)): 1
NAUSEA, subjects % ([2]; sequence A D B C (N = 20)): 5.0%
NAUSEA, subjects n ([2]; sequence A D B C (N = 20)): 1
Number of Subject With At Least one AE, % ([2]; sequence A D B C (N = 20)): 25.0%
Number of Subject With No AE, % ([2]; sequence A D B C (N = 20)): 75.0%
PARESTHESIA, subjects % ([2]; sequence A D B C (N = 20)): 0.0%
PARESTHESIA, subjects n ([2]; sequence A D B C (N = 20)): 0
PHARYNGITIS, subjects % ([2]; sequence A D B C (N = 20)): 0.0%
PHARYNGITIS, subjects n ([2]; sequence A D B C (N = 20)): 0
RASH, subjects % ([2]; sequence A D B C (N = 20)): 0.0%
RASH, subjects n ([2]; sequence A D B C (N = 20)): 0
ABDOMINAL PAIN, subjects % ([2]; sequence B A C D (N = 18)): 0.0%
ABDOMINAL PAIN, subjects n ([2]; sequence B A C D (N = 18)): 0
CONJUNCTIVITIS, subjects % ([2]; sequence B A C D (N = 18)): 0.0%
CONJUNCTIVITIS, subjects n ([2]; sequence B A C D (N = 18)): 0
DIARRHEA, subjects % ([2]; sequence B A C D (N = 18)): 0.0%
DIARRHEA, subjects n ([2]; sequence B A C D (N = 18)): 0
DIZZINESS, subjects % ([2]; sequence B A C D (N = 18)): 0.0%
DIZZINESS, subjects n ([2]; sequence B A C D (N = 18)): 0
EDEMA, PALMAR, subjects % ([2]; sequence B A C D (N = 18)): 0.0%
EDEMA, PALMAR, subjects n ([2]; sequence B A C D (N = 18)): 0
ERYTHEMA, EXTERNAL NOSE, subjects % ([2]; sequence B A C D (N = 18)): 0.0%
ERYTHEMA, EXTERNAL NOSE, subjects n ([2]; sequence B A C D (N = 18)): 0
ERYTHEMA, PALMAR, subjects % ([2]; sequence B A C D (N = 18)): 0.0%
ERYTHEMA, PALMAR, subjects n ([2]; sequence B A C D (N = 18)): 0
HEADACHE, subjects % ([2]; sequence B A C D (N = 18)): 0.0%
HEADACHE, subjects n ([2]; sequence B A C D (N = 18)): 0
HYPOTONIA, subjects % ([2]; sequence B A C D (N = 18)): 0.0%
HYPOTONIA, subjects n ([2]; sequence B A C D (N = 18)): 0
INJECTION SITE REACTION, subjects % ([2]; sequence B A C D (N = 18)): 5.6%
INJECTION SITE REACTION, subjects n ([2]; sequence B A C D (N = 18)): 1
LARYNGISMUS, subjects % ([2]; sequence B A C D (N = 18)): 5.6%
LARYNGISMUS, subjects n ([2]; sequence B A C D (N = 18)): 1
LEG CRAMPS, subjects % ([2]; sequence B A C D (N = 18)): 0.0%
LEG CRAMPS, subjects n ([2]; sequence B A C D (N = 18)): 0
NAUSEA AND VOMITING, subjects % ([2]; sequence B A C D (N = 18)): 0.0%
NAUSEA AND VOMITING, subjects n ([2]; sequence B A C D (N = 18)): 0

From patent publication US20040005354A1, “Oral trimethobenzamide formulations and methods” (King Pharmaceuticals, Inc., priority 2002, published 2004)
